Like-named read-outs stand apart in the source and are kept apart here.
Columns and labels:
Experiment in all cases: Initial MIC, microbroth dilution (CLSI), avibactam 4 mg/L
Format in all cases: cell-based
P. aeruginosa = conditions: Pseudomonas aeruginosa, read-out: MIC
Procedure: (§1) All MIC determinations including those performed in the checkerboard assay were done in cation-adjusted Mueller-Hinton broth (purchased from Becton Dickinson, Oxford UK).
(§2) Initial MIC data were determined by microbroth dilution methods as recommended by CLSI (2012b). Checkerboards were made in accordance with the method given by Pillai et. al., ? Antimicrobial Combinations in Antibiotics, LABORATORY MEDICINE (Lorian Ed., 3rd Ed. (2003)) p. 365-440 as per standard microbroth dilution tests but with agents in combination. […] A final avibactam concentration of 4 mg/L was used throughout the study. Antibacterial agents were combined into microtitre plates using the Evolution III liquid handling system.

K. pneumoniae = conditions: Klebsiella pneumoniae, read-out: MIC
Procedure: as §1, §2

E. coli = conditions: Escherichia coli, read-out: MIC
From the text: (§3) All MIC determinations including those performed in the checkerboard assay were done in cation-adjusted Mueller-Hinton broth (purchased from Becton Dickinson, Oxford UK). […]

S. aureus = conditions: Staphylococcus aureus, read-out: MIC
From the text: as §3

E. faecalis = conditions: Enterococcus faecalis, read-out: MIC
From the text: as §3

E. cloacae = conditions: Enterobacter cloacae, read-out: MIC
From the text: as §3

[1] = isolate 16 P. aeruginosa Basal MICs
[2] = isolate 17 P. aeruginosa Derepressed AmpC
[3] = isolate 18 P. aeruginosa Derepressed AmpC
[4] = isolate 9 K. pneumoniae Basal MICs
[5] = isolate 11 K. pneumoniae CTX-M-15
[6] = isolate 12 K. pneumoniae SHV-12
[7] = isolate 22 S. aureus Basal MICs
[8] = isolate 23 S. aureus Basal MICs, Penicillinase+
[9] = isolate 24 S. aureus Basal MICs, Penicillinase+
[10] = isolate 25 E. faecalis Basal MICs
[11] = isolate 26 E. faecalis Basal MICs
[12] = isolate 27 E. faecalis Basal MICs
[13] = isolate 1 E. cloacae Basal MICs
[14] = isolate 2 E. cloacae Derepressed AmpC
[15] = isolate 3 E. cloacae Derepressed AmpC

SMILES	MIC (P. aeruginosa; [1]) [mg/L]	MIC (P. aeruginosa; [2]) [mg/L]	MIC (P. aeruginosa; [3]) [mg/L]	MIC (P. aeruginosa; isolate 19 P. aeruginosa PER) [mg/L]	MIC (P. aeruginosa; isolate 20 P. aeruginosa KPC-2) [mg/L]	MIC (P. aeruginosa; isolate 21 P. aeruginosa KPC-2) [mg/L]	MIC (K. pneumoniae; [4]) [mg/L]	MIC (K. pneumoniae; isolate 10 K. pneumoniae TEM-4) [mg/L]	MIC (K. pneumoniae; [5]) [mg/L]	MIC (K. pneumoniae; [6]) [mg/L]	MIC (K. pneumoniae; isolate 13 K. pneumoniae KPC-3) [mg/L]	MIC (K. pneumoniae; isolate 14 K. pneumoniae KPC-3) [mg/L]	MIC (K. pneumoniae; isolate 15 K. pneumoniae KPC-2) [mg/L]	MIC (E. coli; isolate 5 E. coli CTX-M-15) [mg/L]	MIC (E. coli; isolate 6 E. coli TEM-4) [mg/L]	MIC (E. coli; isolate 7 E. coli SHV-12) [mg/L]	MIC (E. coli; isolate 8 E. coli SHV-2) [mg/L]	MIC (S. aureus; [7]) [mg/L]	MIC (S. aureus; [8]) [mg/L]	MIC (S. aureus; [9]) [mg/L]	further results
C[C@H]1COc2c(N3CCN(C)CC3)c(F)cc3c(=O)c(C(=O)O)cn1c23 [Levofloxacin]	1	8	0.12	16	16	32	0.03	0.03	16	0.03	0.06	16	0.06	16	0.015	0.015	16	0.25	0.12	0.12	MIC (E. faecalis; [10]): 0.5 mg/L; MIC (E. faecalis; [11]): 1 mg/L; MIC (E. faecalis; [12]): 1 mg/L; MIC (E. cloacae; [13]): 0.03 mg/L; MIC (E. cloacae; [14]): 0.5 mg/L; MIC (E. cloacae; [15]): 0.06 mg/L
NC[C@H]1O[C@H](O[C@H]2[C@H](O)[C@@H](O[C@H]3O[C@H](CO)[C@@H](O)[C@H](N)[C@H]3O)[C@H](N)C[C@@H]2N)[C@H](N)C[C@@H]1O [Tobramycin]	0.25	0.5	0.5	1	256	8	0.25	4	0.25	0.25	0.25	8	0.12	64	1	1	64	0.25	0.5	0.25	MIC (E. coli; isolate 4 E. coli Basal MICs): 0.5 mg/L; MIC (E. faecalis; [10]): 16 mg/L; MIC (E. faecalis; [11]): 16 mg/L; MIC (E. faecalis; [12]): 8 mg/L; MIC (E. cloacae; [13]): 0.25 mg/L; MIC (E. cloacae; [14]): 0.25 mg/L; MIC (E. cloacae; [15]): 0.25 mg/L

Source: patent US20150374673A1, “Combination Therapy for the Treatment of Nosocomial Pneumonia” (priority 2013, published 2015)
